According to patent US12581252B2, “Substituted pyrrolo[3,4-b]pyridines as PI3K-α inhibitors” (Relay Therapeutics, Inc., priority 2020, dated 2026):

Key:
H1047R PIK3CA enzyme = H1047R PIK3CA enzyme (Homo sapiens, UniProt P42336, H1047R); assay: ADP-Glo Biochemical PIK3CA Kinase Assay
cells = conditions: Homo sapiens, MCF-10A, read-out: MCF10A IC50

Sequence of H1047R PIK3CA enzyme (P42336 whole entry H1047R): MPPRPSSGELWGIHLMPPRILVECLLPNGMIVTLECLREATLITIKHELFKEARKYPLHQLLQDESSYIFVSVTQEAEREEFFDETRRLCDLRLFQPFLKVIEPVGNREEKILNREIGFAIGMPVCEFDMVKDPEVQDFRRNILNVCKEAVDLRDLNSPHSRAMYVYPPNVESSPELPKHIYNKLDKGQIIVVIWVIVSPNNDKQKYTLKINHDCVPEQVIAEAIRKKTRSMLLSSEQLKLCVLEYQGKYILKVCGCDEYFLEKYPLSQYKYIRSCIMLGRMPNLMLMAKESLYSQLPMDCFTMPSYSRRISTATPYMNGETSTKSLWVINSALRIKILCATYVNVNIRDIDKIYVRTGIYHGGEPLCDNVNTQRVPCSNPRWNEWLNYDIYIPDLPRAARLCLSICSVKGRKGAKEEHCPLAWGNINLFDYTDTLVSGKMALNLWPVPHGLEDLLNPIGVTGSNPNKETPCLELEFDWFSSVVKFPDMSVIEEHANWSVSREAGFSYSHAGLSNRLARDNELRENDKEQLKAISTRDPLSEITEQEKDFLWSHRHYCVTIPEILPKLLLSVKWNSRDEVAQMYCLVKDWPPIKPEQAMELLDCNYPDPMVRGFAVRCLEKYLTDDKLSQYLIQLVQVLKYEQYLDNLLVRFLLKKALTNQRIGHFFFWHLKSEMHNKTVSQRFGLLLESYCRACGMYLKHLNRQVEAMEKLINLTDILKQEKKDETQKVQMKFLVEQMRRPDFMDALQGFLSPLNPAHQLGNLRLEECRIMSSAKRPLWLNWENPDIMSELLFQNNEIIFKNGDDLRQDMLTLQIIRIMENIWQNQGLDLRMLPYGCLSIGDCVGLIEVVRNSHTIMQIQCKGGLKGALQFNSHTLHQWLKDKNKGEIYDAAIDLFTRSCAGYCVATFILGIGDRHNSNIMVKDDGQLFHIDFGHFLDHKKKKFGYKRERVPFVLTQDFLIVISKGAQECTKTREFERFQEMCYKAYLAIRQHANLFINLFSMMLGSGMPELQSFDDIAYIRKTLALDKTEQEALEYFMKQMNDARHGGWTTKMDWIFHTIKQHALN
Sequence of H1047R PIK3CA enzyme (P27986 whole entry partner): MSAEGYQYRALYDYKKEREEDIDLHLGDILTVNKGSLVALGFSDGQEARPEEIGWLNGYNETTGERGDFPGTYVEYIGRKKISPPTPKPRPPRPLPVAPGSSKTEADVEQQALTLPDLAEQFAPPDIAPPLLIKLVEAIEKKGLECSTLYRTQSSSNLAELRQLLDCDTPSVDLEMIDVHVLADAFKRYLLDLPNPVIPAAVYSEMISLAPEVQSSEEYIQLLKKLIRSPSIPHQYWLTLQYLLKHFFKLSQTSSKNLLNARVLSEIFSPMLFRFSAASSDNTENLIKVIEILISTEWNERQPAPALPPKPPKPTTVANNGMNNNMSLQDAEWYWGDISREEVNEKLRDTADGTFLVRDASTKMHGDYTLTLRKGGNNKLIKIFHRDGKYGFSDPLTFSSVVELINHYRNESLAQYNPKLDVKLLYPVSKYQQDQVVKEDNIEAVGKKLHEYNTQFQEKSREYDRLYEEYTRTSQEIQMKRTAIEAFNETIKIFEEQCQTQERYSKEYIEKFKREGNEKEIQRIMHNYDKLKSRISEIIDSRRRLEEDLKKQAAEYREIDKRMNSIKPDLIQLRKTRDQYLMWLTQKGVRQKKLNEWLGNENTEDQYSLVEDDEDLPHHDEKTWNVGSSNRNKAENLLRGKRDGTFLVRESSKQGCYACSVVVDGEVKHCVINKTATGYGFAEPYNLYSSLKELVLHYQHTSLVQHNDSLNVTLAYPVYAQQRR

Compound	IC50 (H1047R PIK3CA enzyme) [nM]	IC50 (cells) [nM]
Cc1ccccc1C1NC(=O)c2cc(Br)cc(NC(=O)c3csc4ccccc34)c21 (centres unmarked) [Compound I-29, N-[6-bromo-3-(2-methylphenyl)-1-oxo-2,3-dihydro-1H-isoindol-4-yl]-1-benzothiophene-3-carboxamide]	≤ 100	< 1000
O=C(Nc1cc(-c2cscn2)cc2c1C(c1cc(F)ccc1Cl)NC2=O)c1cc(F)cc(C(F)(F)F)c1 (centres unmarked) [Compound I-920]	≤ 100	< 1000
Cc1ccccc1C1NC(=O)c2cc(CS(C)(=O)=O)cc(NC(=O)c3nsc4ccccc34)c21 (centres unmarked) [Compound I-202, N-(6-((Methylsulfonyl)methyl)-1-oxo-3-(o-tolyl)isoindolin-4-yl)benzo[d]isothiazole-3-carboxamide]	≤ 100	< 1000
O=C1NC(c2cc(F)ccc2Cl)c2c(NC(=O)N3CC(O)(C(F)F)c4ccccc43)cccc21 (mixture of isomers) [Compound I-2423]	≤ 100	1000 to 5000
O=C1N[C@@H](c2cc(F)ccc2Cl)c2c(NC(=O)N3C[C@H](O)c4c(F)cccc43)cccc21 (single isomer, unassigned) [Compound I-2142]	≤ 100	< 1000
O=C1N[C@@H](c2cc(F)ccc2Cl)c2c(NC(=O)N3C[C@](O)(C(F)F)c4cc(F)ccc43)cc(F)cc21 (single isomer, unassigned) [Compound I-2635]	≤ 100	< 1000
O=C1N[C@@H](c2cc(F)ccc2Cl)c2c(NC(=O)N3C[C@H](O)c4cc(F)ccc43)cc(-n3cccn3)cc21 (single isomer, unassigned) [Compound I-2364]	≤ 100	1000 to 5000
NCCc1cc(NC(=O)N2C[C@@](O)(C(F)(F)F)c3cc(F)ccc32)c2c(c1)C(=O)N[C@H]2c1cc(F)ccc1Cl (single isomer, unassigned) [Compound I-2581]	≤ 100	10000 to 36000
O=C1N[C@@H](c2cc(F)ccc2Cl)c2c(NC(=O)N3C[C@@](O)(C(F)(F)F)c4cc(F)ccc43)cc(Cl)cc21 (single isomer, unassigned) [Compound I-2513]	≤ 100	< 1000
O=C1N[C@H](c2cc(F)ccc2Cl)c2c(NC(=O)N3C[C@H](O)c4c3ccc(F)c4F)cccc21 (single isomer, unassigned) [Compound I-2310]	≤ 100	< 1000
O=C(Nc1cc(I)cc2c1C(c1cc(F)ccc1Cl)NC2=O)c1cc(F)cc(C(F)(F)F)c1 (centres unmarked) [Compound I-913]	≤ 100	< 1000
[2H][C@@]1(c2cc(F)ccc2Cl)NC(=O)c2cccc(NC(=O)N3C[C@@](O)(C(F)(F)F)c4cc(F)ccc43)c21 (single isomer, unassigned) [Compound I-2682]	≤ 100	< 1000
O=C(Nc1cc(-c2ccc3ncnn3c2)cc2c1[C@H](c1cc(F)ccc1C(F)F)NC2=O)c1cc(F)cc(C(F)(F)F)c1 (stereo in doubt) [Compound I-1056]	≤ 100	< 1000
O=C1N[C@@H](c2cc(F)ccc2Cl)c2c(NC(=O)N3C[C@@](O)(C(F)(F)F)c4ccccc43)cccc21 (single isomer, unassigned) [Compound I-2386]	≤ 100	< 1000
O=C(Nc1cc(-c2ccc3nccn3n2)cc2c1C(c1cc(F)ccc1Cl)NC2=O)c1cc(F)cc(C(F)(F)F)c1 (centres unmarked) [Compound I-905]	≤ 100	< 1000
O=C(Nc1cc(NC2=NC3(CO2)CC(F)(F)C3)cc2c1C(c1cc(F)ccc1Cl)NC2=O)c1cc(F)cc(C(F)(F)F)c1 (centres unmarked) [Compound I-2409]	≤ 100	5000 to 10000
COc1ccc(NC(=O)c2csc3ccccc23)c2c1C(=O)NC2c1ccccc1C (centres unmarked) [Compound I-35]	≤ 100	1000 to 5000
O=C1N[C@H](c2cc(F)ccc2Cl)c2c(NC(=O)N3C[C@H](C(F)F)c4ccccc43)cccc21 (single isomer, unassigned) [Compound I-2333]	≤ 100	1000 to 5000
Cn1ncnc1Nc1cc(NC(=O)c2cc(F)cc(C(F)(F)F)c2)c2c(c1)C(=O)NC2c1cc(F)ccc1Cl (centres unmarked) [Compound I-974]	≤ 100	< 1000
O=C(Nc1cc(-c2ccc3c(c2)OCCO3)cc2c1C(c1cc(F)ccc1Cl)NC2=O)c1cc(F)cc(C(F)(F)F)c1 (centres unmarked) [Compound I-932]	100 to 500	1000 to 5000
O=C(Nc1cc(-c2cnc3ncnn3c2)cc2c1[C@H](c1cc(F)ccc1Cl)NC2=O)c1cc(F)cc(C(F)(F)F)c1 [Compound I-1024]	≤ 100	< 1000
COc1cccc(-c2cc(NC(=O)c3cc(F)cc(C(F)(F)F)c3)c3c(c2)C(=O)N[C@H]3c2cc(F)ccc2Cl)n1 (stereo in doubt) [Compound I-1006]	≤ 100	< 1000
O=C(Nc1cc(Nc2nnco2)cc2c1C(c1cc(F)ccc1Cl)NC2=O)c1cc(F)cc(C(F)(F)F)c1 (centres unmarked) [Compound I-1099]	≤ 100	< 1000
O=C(Nc1cc(NC2=NC(C(F)(F)F)CO2)cc2c1C(c1cc(F)ccc1Cl)NC2=O)c1cc(F)cc(C(F)(F)F)c1 (centres unmarked) [Compound I-2360]	≤ 100	5000 to 10000
CC(C)(CN)n1cc(-c2cc(NC(=O)N3C[C@@](O)(C(F)(F)F)c4cc(F)ccc43)c3c(c2)C(=O)N[C@@H]3c2cc(F)ccc2Cl)cn1 (single isomer, unassigned) [Compound I-2649]	≤ 100	1000 to 5000

Compound	IC50 (H1047R PIK3CA enzyme) [nM]	IC50 (cells) [nM]
O=C1N[C@@H](c2cc(F)ccc2Cl)c2c(NC(=O)N3C[C@](O)(C(F)(F)F)c4cc(F)ccc43)ccc(-n3nccn3)c21 (single isomer, unassigned) [Compound I-2525]	≤ 100	< 1000
O=C(Nc1cc(-c2ccc3nccnc3c2)cc2c1C(c1cc(F)ccc1Cl)NC2=O)c1cc(F)cc(C(F)(F)F)c1 (centres unmarked) [Compound I-1012]	≤ 100	< 1000
Cc1ccccc1[C@H]1NC(=O)c2cccc(NC(=O)c3csc4c(F)cccc34)c21 [Compound I-38]	100 to 500	1000 to 5000
O=C(Nc1cc(-c2ccc[nH]c2=O)cc2c1C(c1cc(F)ccc1Cl)NC2=O)c1cc(F)cc(C(F)(F)F)c1 (centres unmarked) [Compound I-916]	≤ 100	< 1000
O=C1NC(c2cc(F)ccc2Cl)c2c(NC(=O)N3CCc4ccccc43)cccc21 (centres unmarked) [Compound I-2479]	≤ 100	1000 to 5000
CC(C)(O)Cn1cc(-c2cc(NC(=O)c3cc(F)cc(C(F)(F)F)c3)c3c(c2)C(=O)N[C@H]3c2cc(F)ccc2Cl)cn1 [Compound I-1097]	≤ 100	< 1000
O=C(Nc1cc(-c2cnn(C3COC3)c2)cc2c1C(c1cc(F)ccc1Cl)NC2=O)c1cc(F)cc(C(F)(F)F)c1 (centres unmarked) [Compound I-904]	≤ 100	< 1000
O=C(Nc1cc(-c2cnc3cnccn23)cc2c1C(c1cc(F)ccc1Cl)NC2=O)c1cc(F)cc(C(F)(F)F)c1 (centres unmarked) [Compound I-940]	≤ 100	< 1000
CNC(=O)c1cc(NC(=O)c2nsc3ccccc23)c2c(c1)C(=O)N[C@@H]2c1ccccc1C [Compound I-164]	1000 to 10000	10000 to 36000
Cn1cc(-c2cc(NC(=O)c3cc(F)cc(C(F)(F)F)c3)c3c(c2)C(=O)NC3c2cc(F)ccc2Cl)ncc1=O (centres unmarked) [Compound I-1016]	≤ 100	< 1000
CN(C)c1nc2cc(-c3cc(NC(=O)c4cc(F)cc(C(F)(F)F)c4)c4c(c3)C(=O)NC4c3cc(F)ccc3Cl)ccn2n1 (centres unmarked) [Compound I-2200]	≤ 100	< 1000
N#CC1(COc2cc(NC(=O)N3CC(O)c4cc(F)ccc43)c3c(c2)C(=O)NC3c2cc(F)ccc2Cl)CC1 (mixture of isomers) [Compound I-2489]	≤ 100	5000 to 10000
Cc1cc2cnn(C)c2cc1-c1cc(NC(=O)c2cc(F)cc(C(F)(F)F)c2)c2c(c1)C(=O)NC2c1cc(F)ccc1Cl (centres unmarked) [Compound I-933]	100 to 500	5000 to 10000
O=C1NC(c2cc(F)ccc2Cl)c2c(NC(=O)N3CC(C(F)F)c4ccccc43)cccc21 (mixture of isomers) [Compound I-2246]	≤ 100	1000 to 5000
C#Cc1ccccc1-c1cc(NC(=O)c2cc(F)cc(C(F)(F)F)c2)c2c(c1)C(=O)NC2c1cc(F)ccc1Cl (centres unmarked) [Compound I-1163]	≤ 100	< 1000
O=C(Nc1cc(-c2ccc3ncnn3c2)cc2c1[C@H](c1cc(F)ccc1Cl)NC2=O)c1cc(F)cc(OC(F)(F)F)c1 (stereo in doubt) [Compound I-1111]	≤ 100	< 1000
O=C(Nc1cc(-c2cc3ccccc3[nH]2)cc2c1C(c1cc(F)ccc1Cl)NC2=O)c1cc(F)cc(C(F)(F)F)c1 (centres unmarked) [Compound I-971]	≤ 100	< 1000
O=C(Nc1cc(-c2ccc3c(c2)C(=O)NCCO3)cc2c1C(c1cc(F)ccc1Cl)NC2=O)c1cc(F)cc(C(F)(F)F)c1 (centres unmarked) [Compound I-1048]	≤ 100	< 1000
Cc1cc2ncc(-c3cc(NC(=O)c4cc(F)cc(C(F)(F)F)c4)c4c(c3)C(=O)NC4c3cc(F)ccc3Cl)cn2n1 (centres unmarked) [Compound I-1032]	≤ 100	< 1000
O=C1N[C@@H](c2cc(F)ccc2Cl)c2c(NC(=O)c3csc4ccccc34)cc(-c3ccc4ncnn4c3)cc21 [Compound I-1684]	≤ 100	< 1000
N#Cc1cnn(Cc2cc(NC(=O)N3C[C@](O)(C(F)(F)F)c4cc(F)ccc43)c3c(c2)C(=O)N[C@@H]3c2cc(F)ccc2Cl)c1 (single isomer, unassigned) [Compound I-2669]	≤ 100	< 1000
Cc1ccccc1C1NC(=O)c2cc(Br)cc(NC(=O)c3cc(F)cc(C(F)(F)F)c3)c21 (centres unmarked) [Compound I-54]	100 to 500	1000 to 5000
O=C1N[C@H](c2cc(F)ccc2Cl)c2c(NC(=O)N3C[C@](O)(C(F)F)c4cc(F)ccc43)cccc21 (single isomer, unassigned) [Compound I-2558]	≤ 100	< 1000
CC(C)(O)c1ncc(-c2cc(NC(=O)c3cc(F)cc(C(F)(F)F)c3)c3c(c2)C(=O)NC3c2cc(F)ccc2Cl)cn1 (centres unmarked) [Compound I-941]	100 to 500	< 1000
